These results are taken from patent US20210253557A1, “SUBSTITUTED TRIAZOLE DERIVATIVES AND USES THEREOF” (Bayer Pharma Aktiengesellschaft, priority 2017, published 2021).

Molecules are shown by their SMILES.

For orientation: IC50 means the concentration that inhibits the measured activity by half.

The target of one assay is T1, human V2 receptor (Homo sapiens, UniProt P30518).
T1 construct: expressed in transfected cells; host or cells: CHO K1 (ATCC) expressing firefly luciferase under a CRE-responsive promoter
The assay can be described thus: Cellular in vitro assay for determining vasopressin receptor activity (V2, CRE-luciferase). In kind it is cell-based. As to conditions: CHO cell line transfected with the human V2 receptor; [Arg8]-vasopressin at EC50 concentration; read-out: IC50 hV2. The gist of the method: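 Antagonism was measured as inhibition of a 3-h, EC50-level [Arg8]-vasopressin stimulation, with compounds tested at several concentrations, yielding IC50 values. The read-out was cAMP-driven CRE-luciferase luminescence after lysis, in recombinant CHO K1 cells carrying human V2 receptor. Cells were seeded in 2% FCS DMEM/F12 one day earlier.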

For another assay, the target named is T2, human V1a receptor (Homo sapiens, UniProt P37288).
T2 construct: expressed in transfected cells; host or cells: CHO K1 (ATCC), also stably transfected with a modified aequorin
Briefly: Cellular in vitro assay for determining vasopressin receptor activity (V1a, aequorin luminescence). In kind it is cell-based. Conditions: for IC50: CHO cell line transfected with the human V1a receptor, [Arg8]-vasopressin at EC50 concentration, read-out: IC50 hV1a; for ratio IC50 hV2/hV1a: selectivity ratio of IC50 hV2 to IC50 hV1a.

T2 sequence (P37288 whole entry): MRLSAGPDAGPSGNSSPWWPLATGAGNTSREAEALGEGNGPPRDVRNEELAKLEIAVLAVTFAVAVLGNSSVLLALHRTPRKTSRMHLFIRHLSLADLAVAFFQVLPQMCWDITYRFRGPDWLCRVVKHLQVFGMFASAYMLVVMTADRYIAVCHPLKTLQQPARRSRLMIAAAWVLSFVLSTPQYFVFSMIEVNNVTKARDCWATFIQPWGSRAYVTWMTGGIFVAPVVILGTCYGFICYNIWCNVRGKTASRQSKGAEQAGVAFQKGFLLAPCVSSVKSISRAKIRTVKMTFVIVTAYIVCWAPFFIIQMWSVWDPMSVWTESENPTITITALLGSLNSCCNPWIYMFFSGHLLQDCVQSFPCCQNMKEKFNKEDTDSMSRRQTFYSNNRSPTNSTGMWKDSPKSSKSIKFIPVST
T1 sequence (P30518 whole entry): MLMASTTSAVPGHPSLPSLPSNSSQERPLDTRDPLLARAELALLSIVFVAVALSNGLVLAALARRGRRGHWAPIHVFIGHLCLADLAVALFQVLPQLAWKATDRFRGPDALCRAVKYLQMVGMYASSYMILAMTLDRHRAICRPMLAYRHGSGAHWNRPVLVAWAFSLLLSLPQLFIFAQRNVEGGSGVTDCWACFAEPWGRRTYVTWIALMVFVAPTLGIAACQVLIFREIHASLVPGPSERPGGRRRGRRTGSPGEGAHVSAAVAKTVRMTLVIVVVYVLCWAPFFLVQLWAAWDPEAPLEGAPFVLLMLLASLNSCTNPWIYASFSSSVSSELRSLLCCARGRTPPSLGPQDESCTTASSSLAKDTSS

With `CC(=O)NC(CO)c1nc(Cn2nc(-c3ccc(Cl)cc3)n(C[C@H](O)C(F)(F)F)c2=O)nn1-c1ccccc1Cl` (single isomer, unassigned) [Example 92], the IC50 at human V2 receptor is 17.5 nM; on human V1a receptor it was 5.1 nM. Besides, the “ratio IC50 hV2/hV1a” value on human V1a receptor amounted to 3.4.

`CC(=O)NC(CO)c1nc(Cn2nc(-c3ccc(Cl)cc3)n(C[C@H](O)C(F)(F)F)c2=O)nn1-c1ccccc1Cl` (single isomer, unassigned) [Example 93]: the IC50 at human V2 receptor was determined as 15.5 nM. At human V1a receptor, the IC50 was 0.78 nM and the “ratio IC50 hV2/hV1a” value turned out to be 20.0.

`O=C(NC(CO)c1nc(Cn2nc(-c3ccc(Cl)cc3)n(C[C@H](O)C(F)(F)F)c2=O)nn1-c1ccccc1Cl)C(F)(F)F` (single isomer, unassigned) [Example 96]: the half-inhibitory concentration (IC50) on human V2 receptor turned out to be 3.25 nM; at human V1a receptor, 0.55 nM. On human V1a receptor, the “ratio IC50 hV2/hV1a” value is on record as 6.0.

Regarding `O=C(NC(CO)c1nc(Cn2nc(-c3ccc(Cl)cc3)n(C[C@H](O)C(F)(F)F)c2=O)nn1-c1ccccc1Cl)C(F)(F)F` (single isomer, unassigned) [Example 97], on human V2 receptor, the IC50 amounted to 20 nM. For the same compound, on human V1a receptor, the IC50 was found to be 4.45 nM and the “ratio IC50 hV2/hV1a” value is given as 4.5.

For `O=C1NC(c2nc(Cn3nc(-c4ccc(Cl)cc4)n(C[C@H](O)C(F)(F)F)c3=O)nn2-c2ccccc2Cl)CO1` (single isomer, unassigned) [Example 99], the IC50 at human V2 receptor was 21 nM. Further, at human V1a receptor, the IC50 amounted to 3.3 nM and the “ratio IC50 hV2/hV1a” value is recorded as 6.4.

For `O=C1NC(c2nc(Cn3nc(-c4ccc(Cl)cc4)n(C[C@H](O)C(F)(F)F)c3=O)nn2-c2ccccc2Cl)CO1` (single isomer, unassigned) [Example 100], at human V2 receptor, the IC50 came to 87.5 nM. Besides, on human V1a receptor, the IC50 was found to be 4.33 nM and the “ratio IC50 hV2/hV1a” value was determined as 20.2.

As for `CN1C(=O)CC[C@@H]1c1nc(Cn2nc(-c3ccc(Cl)cc3)n(C[C@H](O)C(F)(F)F)c2=O)nn1-c1ncccc1Cl` (single isomer, unassigned) [Example 104], the IC50 on human V2 receptor came to 175 nM. Besides, at human V1a receptor, the IC50 was found to be 3.1 nM and the “ratio IC50 hV2/hV1a” value is listed as 56.4.

For `CN1C(=O)CC[C@@H]1c1nc(Cn2nc(-c3ccc(Cl)cc3)n(C[C@H](O)C(F)(F)F)c2=O)nn1-c1ncccc1Cl` (single isomer, unassigned) [Example 105], at human V2 receptor, the IC50 came to 51 nM. On human V1a receptor, the IC50 amounted to 2.1 nM and the “ratio IC50 hV2/hV1a” value was 24.3.

Turning to `CC(=O)NC(C)c1nc(Cn2nc(-c3ccc(Cl)cc3)n(C[C@H](O)C(F)(F)F)c2=O)nn1-c1ncccc1Cl` (single isomer, unassigned) [Example 108], the half-maximal inhibitory concentration (IC50) on human V2 receptor is 69.4 nM. Further, on human V1a receptor, the IC50 turned out to be 6.03 nM and the “ratio IC50 hV2/hV1a” value came out at 11.5.

Consider `CC(=O)NC(C)c1nc(Cn2nc(-c3ccc(Cl)cc3)n(C[C@H](O)C(F)(F)F)c2=O)nn1-c1ncccc1Cl` (single isomer, unassigned) [Example 109], for which the IC50 at human V2 receptor was 408 nM. At human V1a receptor, the concentration for half-maximal inhibition (IC50) amounted to 39 nM and the “ratio IC50 hV2/hV1a” value turned out to be 10.5.

`O=C1NC(c2nc(Cn3nc(-c4ccc(Cl)cc4)n(C[C@H](O)C(F)(F)F)c3=O)nn2-c2ncccc2Cl)CO1` (single isomer, unassigned) [Example 113]: at human V2 receptor, the half-maximal inhibitory concentration (IC50) came to 134 nM. Besides, at human V1a receptor, the IC50 is 5.8 nM and the “ratio IC50 hV2/hV1a” value is on record as 23.1.

As for `O=C1NC(c2nc(Cn3nc(-c4ccc(Cl)cc4)n(C[C@H](O)C(F)(F)F)c3=O)nn2-c2ncccc2Cl)CO1` (single isomer, unassigned) [Example 114], at human V2 receptor, the IC50 was found to be 525 nM. Further, on human V1a receptor, the IC50 amounted to 22.7 nM and the “ratio IC50 hV2/hV1a” value was 23.2.

`O=C1NC(c2nc(Cn3nc(-c4ccc(Cl)cc4)n(C[C@H](O)C(F)(F)F)c3=O)nn2-c2ncccc2OC(F)(F)F)CO1` (single isomer, unassigned) [Example 118]: the concentration for half-maximal inhibition (IC50) at human V2 receptor is 385 nM. Also, on human V1a receptor, the 50% inhibitory concentration (IC50) worked out at 17 nM and the “ratio IC50 hV2/hV1a” value came to 22.7.

Consider `O=C1NC(c2nc(Cn3nc(-c4ccc(Cl)cc4)n(C[C@H](O)C(F)(F)F)c3=O)nn2-c2ncccc2OC(F)(F)F)CO1` (single isomer, unassigned) [Example 119], for which the IC50 on human V2 receptor turned out to be 875 nM. Also, at human V1a receptor, the half-inhibitory concentration (IC50) was 57 nM and the “ratio IC50 hV2/hV1a” value is 15.4.

As to `CC(=O)NC(CO)c1nc(Cn2nc(-c3ccc(Cl)cc3)n(C[C@H](O)C(F)(F)F)c2=O)nn1-c1ncccc1OC(F)(F)F` (single isomer, unassigned) [Example 121], the IC50 on human V2 receptor worked out at 2780 nM. On human V1a receptor, the IC50 was 147 nM and the “ratio IC50 hV2/hV1a” value is given as 18.8.

For the compound `CC(=O)NC(CO)c1nc(Cn2nc(-c3ccc(Cl)cc3)n(C[C@H](O)C(F)(F)F)c2=O)nn1-c1ncccc1OC(F)(F)F` (single isomer, unassigned) [Example 122], the half-inhibitory concentration (IC50) was determined as 280 nM at human V2 receptor and 6.35 nM at human V1a receptor. For the same compound, on human V1a receptor, the “ratio IC50 hV2/hV1a” value was found to be 44.1.

As for `CNc1ccncc1-n1nc(Cn2nc(-c3ccc(Cl)cc3)n(C[C@H](O)C(F)(F)F)c2=O)nc1C(C)NC(C)=O` (single isomer, unassigned) [Example 126], on human V2 receptor, the IC50 came to 1260 nM. At human V1a receptor, the 50% inhibitory concentration (IC50) was found to be 1380 nM and the “ratio IC50 hV2/hV1a” value is on record as 0.9.

In the case of `CNc1ccncc1-n1nc(Cn2nc(-c3ccc(Cl)cc3)n(C[C@H](O)C(F)(F)F)c2=O)nc1C(C)NC(C)=O` (single isomer, unassigned) [Example 127], at human V2 receptor, the IC50 is 1550 nM. On human V1a receptor, the IC50 was determined as 53 nM and the “ratio IC50 hV2/hV1a” value turned out to be 29.3.

Turning to `CN1C(=O)CCC1c1nc(Cn2nc(-c3ccc(Cl)cc3)n(C[C@H](O)C(F)(F)F)c2=O)nn1CCC(F)(F)F` (single isomer, unassigned) [Example 131], the IC50 on human V2 receptor came out at 1540 nM. Also, at human V1a receptor, the half-inhibitory concentration (IC50) is 9.55 nM and the “ratio IC50 hV2/hV1a” value is listed as 161.3.

In the case of `CN1C(=O)CCC1c1nc(Cn2nc(-c3ccc(Cl)cc3)n(C[C@H](O)C(F)(F)F)c2=O)nn1CCC(F)(F)F` (single isomer, unassigned) [Example 132], the IC50 on human V2 receptor stood at 1730 nM. For the same compound, on human V1a receptor, the IC50 turned out to be 18.5 nM and the “ratio IC50 hV2/hV1a” value was found to be 93.5.

As for `C[C@H](OC(N)=O)c1nc(Cn2nc(-c3ccc(Cl)cc3)n(C[C@H](O)C(F)(F)F)c2=O)nn1-c1c(Cl)cccc1Cl` [Example 1, (1S)-1-[3-({3-(4-Chlorophenyl)-5-oxo-4-[(2S)-3,3,3-trifluoro-2-hydroxypropyl]-4,5-dihydro-1H-1,2,4-triazol-1-yl}methyl)-1-(2,6-dichlorophenyl)-1H-1,2,4-triazol-5-yl]ethyl Carbamate], the figures for the concentration for half-maximal inhibition (IC50) at human V2 receptor and on human V1a receptor were 16.3 nM and 3.5 nM, respectively. Besides, on human V1a receptor, the “ratio IC50 hV2/hV1a” value is on record as 4.7.

For the compound `C[C@@H](OC(N)=O)c1nc(Cn2nc(-c3ccc(Cl)cc3)n(C[C@H](O)C(F)(F)F)c2=O)nn1-c1c(Cl)cccc1Cl` [Example 2, (1R)-1-[3-({3-(4-Chlorophenyl)-5-oxo-4-[(2S)-3,3,3-trifluoro-2-hydroxypropyl]-4,5-dihydro-1H-1,2,4-triazol-1-yl}methyl)-1-(2,6-dichlorophenyl)-1H-1,2,4-triazol-5-yl]ethyl Carbamate], the half-inhibitory concentration (IC50) at human V2 receptor is 5.8 nM. Besides, at human V1a receptor, the half-maximal inhibitory concentration (IC50) stood at 0.97 nM and the “ratio IC50 hV2/hV1a” value was 6.0.

`C[C@@H](OC(N)=O)c1nc(Cn2nc(-c3ccc(Cl)cc3)n(C[C@H](O)C(F)(F)F)c2=O)nn1-c1c(F)cccc1Cl` [Example 3, (1R)-1-[1-(2-Chloro-6-fluorophenyl)-3-({3-(4-chlorophenyl)-5-oxo-4-[(2S)-3,3,3-trifluoro-2-hydroxypropyl]-4,5-dihydro-1H-1,2,4-triazol-1-yl}methyl)-1H-1,2,4-triazol-5-yl]ethyl Carbamate]: the 50% inhibitory concentration (IC50) at human V2 receptor worked out at 6.85 nM. Moreover, on human V1a receptor, the 50% inhibitory concentration (IC50) worked out at 1.35 nM and the “ratio IC50 hV2/hV1a” value amounted to 5.1.

For `C[C@@H](OC(N)=O)c1nc(Cn2nc(-c3ccc(Cl)cc3)n(C[C@H](O)C(F)(F)F)c2=O)nn1-c1ccc(F)cc1Cl` [Example 4, (1R)-1-[1-(2-Chloro-4-fluorophenyl)-3-({3-(4-chlorophenyl)-5-oxo-4-[(2S)-3,3,3-trifluoro-2-hydroxypropyl]-4,5-dihydro-1H-1,2,4-triazol-1-yl}methyl)-1H-1,2,4-triazol-5-yl]ethyl Carbamate], the IC50 on human V2 receptor worked out at 13.4 nM. For the same compound, on human V1a receptor, the half-inhibitory concentration (IC50) was determined as 1.46 nM and the “ratio IC50 hV2/hV1a” value amounted to 9.2.

`C[C@H](OC(N)=O)c1nc(Cn2nc(-c3ccc(Cl)cc3)n(C[C@H](O)C(F)(F)F)c2=O)nn1-c1ccccc1OC(F)F` [Example 5, (1S)-1-{3-({3-(4-Chlorophenyl)-5-oxo-4-[(2S)-3,3,3-trifluoro-2-hydroxypropyl]-4,5-dihydro-1H-1,2,4-triazol-1-yl}methyl)-1-[2-(difluoromethoxy)phenyl]-1H-1,2,4-triazol-5-yl}ethyl Carbamate]: on human V2 receptor, the half-maximal inhibitory concentration (IC50) turned out to be 7.05 nM. On human V1a receptor, the IC50 is 1.6 nM and the “ratio IC50 hV2/hV1a” value was found to be 4.4.

Consider `C[C@@H](OC(N)=O)c1nc(Cn2nc(-c3ccc(Cl)cc3)n(C[C@H](O)C(F)(F)F)c2=O)nn1-c1ccccc1OC(F)F` [Example 6, (1R)-1-{3-({3-(4-Chlorophenyl)-5-oxo-4-[(2S)-3,3,3-trifluoro-2-hydroxypropyl]-4,5-dihydro-1H-1,2,4-triazol-1-yl}methyl)-1-[2-(difluoromethoxy)phenyl]-1H-1,2,4-triazol-5-yl}ethyl Carbamate], for which the 50% inhibitory concentration (IC50) at human V2 receptor was 20.7 nM. Also, on human V1a receptor, the IC50 was determined as 0.81 nM and the “ratio IC50 hV2/hV1a” value is 25.6.
